Reference: US20200055839A1 (priority 2017, published 2020)

System: NL-RLuc virus
Assay: Inhibition of HIV replication (NL-RLuc virus, luciferase readout in MT-2 cells)
Assay type: cell-based
Details: Human immunodeficiency virus 1, MT2, 120 h, MT-2 cells infected with NL-RLuc virus, 5 days of incubation, 10% FBS, at least 2 experiments
Summary of the method: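 MT-2 cells infected with NL4-3-derived virus carrying Renilla luciferase in place of part of nef, grown 5 days with serial compound dilutions in RPMI 1640/10% FBS. Virus growth read as luciferase expression. EC50 from median effect equation, at least 2 experiments.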

SMILES | EC50 [nM]
Cc1ncc(-c2ccc3ccccc3n2)c(N2CCC(C)(C)CC2)c1[C@H](OC(C)(C)C)C(=O)O [Example 266, (S)-2-(tert-Butoxy)-2-(4-(4,4-dimethylpiperidin-1-yl)-2-methyl-5-(quinolin-2-yl)pyridin-3-yl)acetic acid] | 11
COc1ccc(-c2c(CN3CCC4(CCC4)CC3)nc(C)c([C@H](OC(C)(C)C)C(=O)O)c2N2CCC(C)(C)CC2)cc1 [Example 192, (2S)-2-[6-({7-Azaspiro[3.5]nonan-7-yl}methyl)-4-(4,4-dimethylpiperidin-1-yl)-5-(4-methoxyphenyl)-2-methylpyridin-3-yl]-2-(tert-butoxy)acetic acid] | 1
Cc1ncc(-c2ccccc2C(N)=O)c(N2CCC(C)(C)CC2)c1[C@H](OC(C)(C)C)C(=O)O [Example 154, (2S)-2-(tert-butoxy)-2-[5-(2-carbamoylphenyl)-4-(4,4-dimethylpiperidin-1-yl)-2-methylpyridin-3-yl]acetic acid] | 52
Cc1ncc(-c2ccc(O[C@H](C)c3ccccc3)cn2)c(N2CCC(C)(C)CC2)c1[C@H](OC(C)(C)C)C(=O)O [Example 350, (2S)-2-(tert-butoxy)-2-[4′-(4,4-dimethylpiperidin-1-yl)-6′-methyl-5-[(1R)-1-phenylethoxy]-[2,3′-bipyridine]-5′-yl]acetic acid] | 3
COc1ccc(CCOc2ccc(-c3cnc(C)c([C@H](OC(C)(C)C)C(=O)O)c3N3CCC(C)(C)CC3)cc2)cc1 [Example 367, (2S)-2-(tert-butoxy)-2-[4-(4,4-dimethylpiperidin-1-yl)-5-{4-[2-(4-methoxyphenyl)ethoxy]phenyl}-2-methylpyridin-3-yl]acetic acid] | 1
COc1ccc(COc2ccc(-c3cnc(C)c([C@H](OC(C)(C)C)C(=O)O)c3N3CCC(C)(C)CC3)nc2)cc1 [Example 339, (2S)-2-(tert-butoxy)-2-[4′-(4,4-dimethylpiperidin-1-yl)-5-[(4-methoxyphenyl)methoxy]-6′-methyl-[2,3′-bipyridine]-5′-yl]acetic acid] | 2
Cc1nc(CO)c(-c2ccc(OCCc3ccc(F)cc3)c(F)c2)c(N2CCC(C)(C)CC2)c1[C@H](OC(C)(C)C)C(=O)O [Example 230, (S)-2-(tert-Butoxy)-2-(4-(4,4-dimethylpiperidin-1-yl)-5-(3-fluoro-4-(4-fluorophenethoxy)phenyl)-6-(hydroxymethyl)-2-methylpyridin-3-yl)acetic acid] | 3
Cc1ncc(-c2cnc(OCCc3cc(F)cc(F)c3)c(F)c2)c(N2CCC(C)(C)CC2)c1[C@H](OC(C)(C)C)C(=O)O [Example 390, (2S)-2-(tert-butoxy)-2-{6′-[2-(3,5-difluorophenyl)ethoxy]-4-(4,4-dimethylpiperidin-1-yl)-5′-fluoro-6-methyl-[3,3′-bipyridine]-5-yl}acetic acid] | 2
Cc1ncc(-c2ccc(OC(C)CC(C)C)nc2)c(N2CCC(C)(C)CC2)c1[C@H](OC(C)(C)C)C(=O)O (stereo partly drawn) [Example 439, (2S)-2-tert-Butoxy-2-(4-(4,4-dimethylpiperidin-1-yl)-6-methyl-6′-(4-methylpentan-2-yloxy)-3, 3′-bipyridin-5-yl)acetic acid] | 15
Cc1ncc(-c2ccc(/C=C/C(C)C)nc2)c(N2CCC(C)(C)CC2)c1[C@H](OC(C)(C)C)C(=O)O [Example 421, (S,E)-2-(tert-Butoxy)-2-(4-(4,4-dimethylpiperidin-1-yl)-6-methyl-6′-(3-methylbut-1-en-1-yl)-[3, 3′-bipyridin]-5-yl)acetic acid] | 8
Cc1nc(Nc2ccc(C#N)cn2)c(-c2ccc(OCCc3ccc(F)cc3)cc2)c(N2CCC(C)(C)CC2)c1[C@H](OC(C)(C)C)C(=O)O [Example 109, (S)-2-(tert-Butoxy)-2-(6-((5-cyanopyridin-2-yl)amino)-4-(4,4-dimethylpiperidin-1-yl)-5-(4-(4-fluorophenethoxy)phenyl)-2-methylpyridin-3-yl)acetic acid] | 13
Cc1nc(N)c(-c2cnc(OCCc3cccc(F)c3)c(F)c2)c(N2CCC(C)(C)CC2)c1[C@H](OC(C)(C)C)C(=O)O [Example 116, (S)-2-(2-Amino-4-(4,4-dimethylpiperidin-1-yl)-5′-fluoro-6′-(3-fluorophenethoxy)-6-methyl-[3, 3′-bipyridin]-5-yl)-2-(tert-butoxy)acetic acid] | 1
Cc1nc(NCCN(C)C)c(-c2ccc(OCCc3ccc(F)cc3)cc2)c(N2CCC(C)(C)CC2)c1[C@H](OC(C)(C)C)C(=O)O [Example 28, (S)-2-(tert-Butoxy)-2-(6-((2-(dimethylamino)ethyl)amino)-4-(4,4-dimethylpiperidin-1-yl)-5-(4-(4-fluorophenethoxy)phenyl)-2-methylpyridin-3-yl)acetic acid] | 0.7
Cc1ncc(-c2cccc(F)c2)c(N2CCC(C)(C)CC2)c1[C@H](OC(C)(C)C)C(=O)O [Example 133, (2S)-2-(tert-Butoxy)-2-[4-(4,4-dimethylpiperidin-1-yl)-5-(3-fluorophenyl)-2-methylpyridin-3-yl]acetic acid] | 4
Cc1ncc(-c2ccc(OCC(C)C)nc2Cl)c(N2CCC(C)(C)CC2)c1[C@H](OC(C)(C)C)C(=O)O [Example 431, (2S)-2-tert-Butoxy-2-(2′-chloro-4-(4,4-dimethylpiperidin-1-yl)-6′-isobutoxy-6-methyl-3, 3′-bipyridin-5-yl)acetic acid] | 32
CCCCNc1ccc(-c2cnc(C)c([C@H](OC(C)(C)C)C(=O)O)c2N2CCC(C)(C)CC2)cn1 [Example 437, (S)-2-tert-Butoxy-2-(6′-(butylamino)-4-(4,4-dimethylpiperidin-1-yl)-6-methyl-3, 3′-bipyridin-5-yl)acetic acid] | 9
Cc1cc(F)ccc1CCOc1ccc(-c2cnc(C)c([C@H](OC(C)(C)C)C(=O)O)c2N2CCC(C)(C)CC2)nc1 [Example 286, (S)-2-(tert-Butoxy)-2-(4′-(4,4-dimethylpiperidin-1-yl)-5-(4-fluoro-2-methylphenethoxy)-6′-methyl-[2, 3′-bipyridin]-5′-yl)acetic acid] | 1
Cc1nc(Nc2ncccc2F)c(-c2ccc(OCCc3ccc(F)cc3)cc2)c(N2CCC(C)(C)CC2)c1[C@H](OC(C)(C)C)C(=O)O [Example 82, (S)-2-(tert-Butoxy)-2-(4-(4,4-dimethylpiperidin-1-yl)-5-(4-(4-fluorophenethoxy)phenyl)-6-((3-fluoropyridin-2-yl)amino)-2-methylpyridin-3-yl)acetic acid] | 2
Cc1ccnc(Nc2nc(C)c([C@H](OC(C)(C)C)C(=O)O)c(N3CCC(C)(C)CC3)c2-c2ccc(OCCc3ccc(F)cc3)cc2)c1 [Example 79, (S)-2-(tert-Butoxy)-2-(4-(4,4-dimethylpiperidin-1-yl)-5-(4-(4-fluorophenethoxy)phenyl)-2-methyl-6-((4-methylpyridin-2-yl)amino)pyridin-3-yl)acetic acid] | 6
COc1ccc(F)c(-c2cnc(C)c([C@H](OC(C)(C)C)C(=O)O)c2N2CCC(C)(C)CC2)c1 [Example 150, (2S)-2-(tert-Butoxy)-2-[4-(4,4-dimethylpiperidin-1-yl)-5-(2-fluoro-5-methoxyphenyl)-2-methylpyridin-3-yl]acetic acid] | 12
